{"source": "patent US8143291B2", "about": "“Indole compounds bearing aryl or heteroaryl groups having sphingosine-1-phosphate (S1P) receptor biological activity” (Allergan, Inc., priority 2008, dated 2012)", "origin": "cited, not measured here", "system": "perfused porcine eyes", "details": "by altering paracellular permeability, IOVS 45, 2263, 2004"}
{"smiles": "CCCCCCCCCCCCC/C=C/[C@@H](O)[C@@H](N)COP(=O)(O)O", "note": "[S1P, Sphingosine-1-phosphate]", "values": [{"measurement": "decrease of outflow facility", "value": "> 30", "unit": "%"}]}
